What was measured:
[1] = Water solubility of alkylene glycol dilevulinates; format: physicochemical
Description: Ethylene glycol dilevulinate (EGDL) is 100% water soluble while 1,2-propylene glycol dilevulinate (1,2-PGDL) is 10% soluble by weight in water, and 1,3-propylene glycol dilevulinate (1,3-PGDL) is 25% soluble. All three compounds also dissolve aromatic hydrocarbon compounds such as toluene and xylene, while having limited solubility for simple aliphatic hydrocarbons such as hexane and cyclohexane. Thus, C2-C3 alkylene glycol dilevulinates appear to provide the greatest benefits when used as coupling agents in water-based cleaning formulations.

[2] = Coupling effectiveness / phase stability with d-limonene (Sets I & II); format: physicochemical; design: key to appearance of sample formulation (coupling of d-limonene): clear: Clear indicates successful coupling of the d-limonene; cloudy indicates poor or no coupling; details: for d-limonene level successfully coupled: 1% SLS, solvent at a 20% level, highest d-limonene level tested; for appearance of sample formulation (coupling of d-limonene): 20% coupling agent, Column 6; for effectiveness at coupling d-limonene: absence of surfactant (0% SLS)
Procedure: Two sets of experiments (I & II) were performed to determine the relative coupling effectiveness of fragrance (d-limonene)-containing aqueous formulations having various traditional coupling agents (glycol ethers) and those having various alkylene glycol dilevulinates as the coupling agents, at various temperatures (5° C., room temperature (25° C.) and 40° C.). The details are provided below and the results are shown in diagrams provided in FIGS. 1-16 and explained hereinbelow.
Stock solutions were prepared that contained the main components which didn't change throughout these experiments. Each formulation contained the following standard ingredients: […]
With reference now to the figures, FIGS. 1-8 relate to the Set of Comparative Examples. Each circle represents one sample formulation. More particularly, each of FIGS. 1 & 5 provide a schematic grid diagram of the general layout of sample formulations having various types of glycol ethers as coupling agents and various amounts of d-limonene fragrance, in the presence of 1% SLS surfactant and absence (0% SLS) of surfactant.
FIGS. 2-4 & 6-8 show the results (clear/white or cloudy/black) for the sample formulations identified in the grids of FIGS. 1 and 5 at 5° C., room temperature (25° C.), and 40° C., respectively. Clear indicates successful coupling of the d-limonene and cloudy indicates poor or no coupling.
FIGS. 9-16 relate to the Set II of Working Examples. As with FIGS. 1-8, each circle represents one sample formulation. More particularly, FIG. 9 provides a schematic grid diagram of the general layout of sample formulations having various types of alkylene glycol dilevulinates as coupling agents and various amounts of d-limonene fragrance. For instance, rows A & B of the grid in FIG. 9 were formulations that each had 0.25% by weight d-limonene. Thus, rows A & B of each of FIGS. 10-12 & 14-16 depict formulations that had 0.25% by weight d-limonene.
FIGS. 10-12 & 14-16 show the results (clear/white or cloudy/black) for the sample formulations identified in the grids of FIGS. 9 & 13 at 5° C., room temperature (25° C.), and 40° C., respectively. Clear indicates successful coupling of the d-limonene and cloudy indicates poor or no coupling.

| Compound | water soluble / soluble by weight in water [1] [%] | d-limonene level successfully coupled [2] [%] | effectiveness at coupling d-limonene [2] | other results |
| --- | --- | --- | --- | --- |
| CC(=O)CCC(=O)OCC(C)OC(=O)CCC(C)=O (centres unmarked) [1,2-PGDL, 1,2-propylene glycol dilevulinate] | 10 |  |  |  |
| CCCCCCOCCOCCO [HxCb, diethylene glycol n-hexyl ether] |  | 3 |  | appearance of sample formulation (coupling of d-limonene) ([2]; 5° C. (FIG. 2), 0.75% d-limonene, Row D): cloudy; appearance of sample formulation (coupling of d-limonene) ([2]; 40° C., 0.75% d-limonene, Row D): cloudy; appearance of sample formulation (coupling of d-limonene) ([2]; room temperature (FIG. 3), 0.75% d-limonene, Row D): clear |
| COC(C)COC(C)CO (centres unmarked) [DOWANOL DPM, dipropylene glycol methyl ether] |  | 3 |  | d-limonene level coupled into an aqueous mixture ([2]; absence of added SLS surfactant): more than 0.25% |
| CC(=O)CCC(=O)OCCOC(=O)CCC(C)=O [EGDL, ethylene glycol dilevulinate] | 100 |  | better than 1,2-propylene glycol dilevulinate | appearance of sample formulation (coupling of d-limonene) ([2]; 5° C. (FIG. 2), 1.5% d-limonene, Row F): clear; appearance of sample formulation (coupling of d-limonene) ([2]; 40° C., 1.5% d-limonene, Row F): cloudy; appearance of sample formulation (coupling of d-limonene) ([2]; room temperature (FIG. 3), 1.5% d-limonene, Row F): clear |
| CC(=O)CCC(=O)OCCCOC(=O)CCC(C)=O [1,3-propylene glycol dilevulinate] |  |  | better than 1,2-propylene glycol dilevulinate |  |
| CC(=O)CCC(=O)OCCCOC(=O)CCC(C)=O [1,3-PGDL, 1,3-propylene glycol dilevulinate] | 25 |  |  |  |

Reference: patent US8586522B2, “Glycol dilevulinates as coupling agents in cleaning formulations” (Dow Global Technologies LLC, priority 2011, dated 2013)
